Experiments:
[1] = test system: Tetranychus urticae (OP-resistant strain), 2-spotted spider mite; assay: 2-spotted spider mite test, dipped infested limabean plants; format: in vivo; design: key: 0: no effect; 10-25% kill; 26-35% kill; 36-45% kill; 46-55% kill; 56-65% kill; 66-75% kill; 76-85% kill; 86-99% kill; 9: 100% kill; details: for OP-RESISTANT MITES Egg: mite eggs
Procedure: (§1) Test solutions are prepared by dissolving the test compound in a 35% acetone in water mixture to give a concentration of 10,000 ppm. Subsequent dilutions are made with water as needed.
Tetranychus urticae (OP-resistant strain), 2-spotted spider mite
Sieva limabean plants with primary leaves expanded to 7-8 cm are selected and cut back to one plant per pot. A small piece is cut from an infested leaf taken from the main colony and placed on each leaf of the test plants. This is done about 2 hours before treatment to allow the mites to move over to the test plant and to lay eggs. The size of the cut, infested leaf is varied to obtain about 100 mites per leaf. At the time of test treatment, the piece of leaf used to transfer the mites is removed and discarded. The newly mite-infested plants are dipped in the test solution for 3 seconds with agitation and set in the hood to dry. After 2 days one leaf is removed and mortality counts are made. After 5 days, another leaf is removed and observations are made of mortality of the eggs and/or newly emerged nymphs.
(§2) All of the above tests are rated according to the rating scale shown below.

[2] = test system: Empoasca abrupta, adult, western potato leafhopper; assay: Western potato leafhopper contact test, dipped limabean leaf; format: in vivo; design: key: 0: no effect; 10-25% kill; 26-35% kill; 36-45% kill; 46-55% kill; 56-65% kill; 66-75% kill; 76-85% kill; 86-99% kill; 9: 100% kill
Procedure: as §1
Empoasca abrupta, adult, western potato leafhopper
A Sieva limabean leaf about 5 cm long is dipped in the test solution for 3 seconds with agitation and placed in a hood to dry. The treated leaf is placed in a 100 x 10 mm petri dish containing a moist filter paper and about 10 adult leafhoppers are added. After 2 days, mortality counts are made.
as §2

[3] = test system: Spodoptera eridania, 3rd instar larvae, southern armyworm; assay: Southern armyworm 7-day residual test; format: in vivo; details: R designates Residual: 7-day residual foliage, concentration not given
Procedure, shortened: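 Third-instar southern armyworm larvae were exposed to lima bean foliage that had been treated, then held 7 days under greenhouse lamps simulating bright sun for 14 h per day. Treatment solutions were diluted in water from a 10,000 ppm stock in 35% acetone. Results are scale ratings.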

[4] = test system: Spodoptera eridania, 3rd instar larvae, southern armyworm; assay: Southern armyworm 3rd instar test, dipped limabean leaf; format: in vivo; details: for ARMYWORM Day 3: rating at 3 days; for ARMYWORM Day 5: rating at 5 days
Procedure, shortened: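 Ten 3rd instar larvae fed on limabean leaves that had been dipped for 3 s in test solution and dried. Test solutions were diluted in water from a 10,000 ppm stock in 35% acetone/water. Ratings at days 3 and 5 covered death, feeding reduction and abnormal molting.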

[5] = test system: Spodoptera eridania, 3rd instar larvae, southern armyworm; assay: Southern armyworm systemic uptake (stem systemic) test; format: in vivo; design: key: 0: no effect; 10-25% kill; 26-35% kill; 36-45% kill; 46-55% kill; 56-65% kill; 66-75% kill; 76-85% kill; 86-99% kill; 9: 100% kill; details: cut stem in emulsion 3 days
[6] = test system: Aphis fabae, mixed instar, bean aphid; assay: Bean aphid spray test on nasturtium; format: in vivo; design: key: 0: no effect; 10-25% kill; 26-35% kill; 36-45% kill; 46-55% kill; 56-65% kill; 66-75% kill; 76-85% kill; 86-99% kill; 9: 100% kill; details: 100 ppm
Procedure: as §1
Aphis fabae, mixed instar, bean aphid
Pots containing single nasturtium plants (Tropaeolum sp.) about 5 cm tall are infested with about 100-200 aphids one day prior to treatment. Each pot is sprayed with the test solution for 2 revolutions of a 4 rpm turntable in a hood, using a #154 DeVilbiss atomizer. The spray tip is held about 15 cm from the plant and the spray directed so as to give complete coverage of the plants and the aphids. The sprayed pots are set on their sides on white enamel trays and mortality estimates are made after 2 days.
as §2

[7] = test system: Heliothis virescens, egg, tobacco budworm; assay: Tobacco budworm egg test, dipped cotton leaf and eggs; format: in vivo; design: key: 0: no effect; 10-25% kill; 26-35% kill; 36-45% kill; 46-55% kill; 56-65% kill; 66-75% kill; 76-85% kill; 86-99% kill; 9: 100% kill; details: mortality rating after 3 days
Procedure, shortened: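 Scoring is by mortality counts after 3 days, graded on a rating scale. Tobacco budworm eggs (6-30 h old) on cheesecloth and a young cotton leaf were each dipped about 3 s in the test suspension. Suspensions were made from a 10,000 ppm stock in 35% acetone/water with further water dilutions.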

[8] = test system: Empoasca abrupta, adult, western potato leafhopper; assay: Western potato leafhopper systemic uptake test; format: in vivo; design: key: 0: no effect; 10-25% kill; 26-35% kill; 36-45% kill; 46-55% kill; 56-65% kill; 66-75% kill; 76-85% kill; 86-99% kill; 9: 100% kill; details: 100 ppm
Procedure: Empoasca abrupta, adult, western potato leafhopper Systemic Uptake
An emulsion containing 0.1 gm of the test material, 0.2 gm of Emulphor EL-620® emulsifier, 10 mL of acetone and 90 mL of water is prepared and diluted 10-fold with water to give a 100 ppm emulsion. Subsequent 10-fold dilutions are made with water as needed. Sieva limabean plants, with the primary leaves expanded to a length of 7-8 cm, are cut off at least 3 cm above the soil level to avoid contamination with soil bacteria which will cause decay of the stem during the test. The cut stem is placed in the test emulsion and wrapped with a bit of cotton to hold the stem off the bottom of the bottle and to limit evaporation. The treated stem is maintained for 3 days at 27°C to allow the test compound to be taken up into the plant. Following this, one leaf is removed from the plant and placed in a 100 x 10 mm petri dish containing a moist filter paper and about 10 adult leafhoppers as described above. Mortality counts are made after 2 days.
as §2

[9] = test system: Puccinia recondita, tritici; assay: In vivo fungicidal activity, Wheat Leaf Rust (WLR); details: rate 400 ppm, rating, averaged
Procedure: (§3) Test compounds are dissolved in acetone and diluted with deionized water containing about 0.05% TWEEN 20®, a polyoxyethylene sorbitan monolaurate surfactant manufactured by Atlas Chemical Industries, to give a concentration of 400 ppm. Subsequent dilutions are made with an 0.05% aqueous solution of TWEEN 20®.
(§4) Host plants are sprayed with test solution, dried and inoculated with fungi. When disease symptom development is optimal, the plants are rated for disease control according to the rating scale shown below. Each test contains inoculated treated plants, inoculated untreated plants and a reference standard.
(§5) When more than one test is run, the data are averaged.

Cercospora beticola = assay: In vivo fungicidal activity, Sugarbeet Cercospora (SBC); details: rate 400 ppm, rating, averaged
Procedure: as §3, §4, §5

Venturia inaequalis = assay: In vivo fungicidal activity, Apple Scab (AS); details: rate 400 ppm, host plants sprayed then inoculated, rating, averaged
Procedure: as §3, §4, §5

[10] = test system: Erysiphe graminis, tritici; assay: In vivo fungicidal activity, Wheat Powdery Mildew (WPM); details: rating, averaged
Procedure: as §3, §4, §5

Plasmopara viticola = assay: In vivo fungicidal activity, Grape Downy Mildew (GDM); details: rate 400 ppm, rating, averaged
Procedure: as §3, §4, §5

[11] = test system: Diabrotic undecimpunctata howardi, 3rd instar southern corn rootworm; assay: Southern corn rootworm soil test; format: in vivo; design: key: 0: no effect; 10-25% kill; 26-35% kill; 36-45% kill; 46-55% kill; 56-65% kill; 66-75% kill; 76-85% kill; 86-99% kill; 9: 100% kill; details: mortality rating after 6 days
Procedure, shortened: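 Soil test with ten 3rd instar larvae per jar, mortality read after 6 days and missing larvae counted as dead; scores on a rating scale. Doses were 1.25 and 0.25 mg a.i. per jar, corresponding to roughly 50 and 10 kg/ha, loaded on talc from acetone and mixed into moist soil with millet seed as food.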

[12] = test system: Heliothis virescens, 3rd instar tobacco budworm; assay: Tobacco budworm 3rd instar test, dipped cotton cotyledons; format: in vivo; design: key: 0: no effect; 10-25% kill; 26-35% kill; 36-45% kill; 46-55% kill; 56-65% kill; 66-75% kill; 76-85% kill; 86-99% kill; 9: 100% kill; details: mortality rating after 3 days
Procedure: as §1
Heliothis virescens, 3rd instar tobacco budworm
Cotton cotyledons are dipped in the test solution and allowed to dry in a hood. When dry, each is cut into quarters and ten sections are placed individually in 30 mL plastic medicine cups containing a 5-7mm long piece of damp dental wick. One 3rd instar caterpillar is added to each cup and the cup is sealed with MYLAR® film. Treatments are maintained for 3 days before a mortality count and observation of reduction in feeding damage are made.
as §2

[13] = 300 ppm, mite nymphs, rating scale 0-9
[14] = 100 ppm, contact, rating scale 0-9
[15] = systemic uptake, rating scale 0-9

Q: How did the “OP-RESISTANT MITES Adult” value ([1]; 10 ppm, rating scale 0-9) turn out when `CN(C)C(=S)SCn1c(-c2ccc(Cl)c(Cl)c2)c(Br)c(C(F)(F)F)c1C(F)(F)F` [Example 33] was run?
A: 0

Q: And the “OP-RESISTANT MITES Egg” value ([1]; 10 ppm, rating scale 0-9)?
A: 0

Q: And the “OP-RESISTANT MITES Nymph” value ([1]; 10 ppm, mite nymphs, rating scale 0-9)?
A: 0

Q: And the “OP-RESISTANT MITES Adult” value ([1]; 100 ppm, rating scale 0-9)?
A: 0

Q: And the “OP-RESISTANT MITES Egg” value ([1]; 100 ppm, rating scale 0-9)?
A: 8 (86-99% kill)

Q: And the “OP-RESISTANT MITES Nymph” value ([1]; 100 ppm, mite nymphs, rating scale 0-9)?
A: 0

Q: And the “OP-RESISTANT MITES Adult” value ([1]; 300 ppm, rating scale 0-9)?
A: 7 (76-85% kill)

Q: What about the “OP-RESISTANT MITES Egg” value ([1]; 300 ppm, rating scale 0-9) of the same molecule?
A: 0

Q: What about the “OP-RESISTANT MITES Nymph” value [1, 13] of the same molecule?
A: 0

Q: And the “LEAFHOPPER Contact” value ([2]; 10 ppm, contact, rating scale 0-9)?
A: 0

Q: What about the “LEAFHOPPER Contact” value [2, 14] of the same molecule?
A: 8 (86-99% kill)

Q: And the “ARMYWORM Day 3 R” value ([3]; rating at 3 days)?
A: 9 (100% kill)

Q: What about the “ARMYWORM Day 5 R” value ([3]; rating at 5 days) of the same molecule?
A: 9 (100% kill)

Q: What about the “ARMYWORM Day 3” value ([4]; 10 ppm) of the same molecule?
A: 9 (100% kill)

Q: And the “ARMYWORM Day 5” value ([4]; 10 ppm)?
A: 9 (100% kill)

Q: And the “ARMYWORM Day 3” value ([4]; 100 ppm)?
A: 9 (100% kill)

Q: And the “ARMYWORM Day 5” value ([4]; 100 ppm)?
A: 9 (100% kill)

Q: And the “ARMYWORM Day 3” value ([4]; 1000 ppm)?
A: 9 (100% kill)

Q: And the “ARMYWORM Day 5” value ([4]; 1000 ppm)?
A: 9 (100% kill)

Q: And the “ARMYWORM Stem Sys” value [5]?
A: 0

Q: And the APHIDS ([6]; rating scale 0-9)?
A: 0

Q: What about the “TOBACCO BUDWORM Egg” value ([7]; 1000 ppm) of the same molecule?
A: 0

Q: What about the “LEAFHOPPER Systemic” value [8, 15] of the same molecule?
A: 0

Q: What does the source list for `CC(C)OP(=S)(OC(C)C)SCn1c(Br)c(Br)c(C#N)c1Br` [O,O-diisopropyl S-(2,3,5-tribromo-4-cyanopyrrole-1-yl)methyl ester phosphorodithioic acid]?
A: Disease Control WLR [9]: 0 (0); Disease Control SBC (Cercospora beticola): 0 (0); Disease Control AS (Venturia inaequalis): 0 (0); Disease Control WPM ([10]; rate 25 ppm): 0 (0); Disease Control WPM ([10]; rate 100 ppm): 4.0; Disease Control WPM ([10]; rate 400 ppm): 7.0; Disease Control GDM (Plasmopara viticola): 0 (0)

Q: What does the source list for `N#Cc1c(Cl)c(C(F)(F)F)n(CSC(=N)N)c1-c1ccc(Cl)cc1` [Example 3]?
A: OP-RESISTANT MITES Nymph ([1]; 10 ppm, rating after 5 days): 0; OP-RESISTANT MITES Nymph ([1]; 300 ppm, rating after 5 days): 9 (100% kill); LEAFHOPPER Contact ([2]; 10 ppm, mortality rating after 2 days): 9 (100% kill); LEAFHOPPER Contact ([2]; 100 ppm, mortality rating after 2 days): 9 (100% kill); ARMYWORM Day 5 ([4]; 10 ppm): 9 (100% kill); ARMYWORM Day 5 ([4]; 100 ppm): 9 (100% kill); ARMYWORM Day 5 ([4]; 1000 ppm): 9 (100% kill); ARMYWORM Stem Sys [5]: 0; APHIDS ([6]; spray, mortality rating after 2 days): 0; SOUTHERN CORN ROOTWORM ([11]; 1 (ppm as headed)): 0; SOUTHERN CORN ROOTWORM ([11]; 10 (ppm as headed)): 0; SOUTHERN CORN ROOTWORM ([11]; 50 (ppm as headed)): 9 (100% kill); TOBACCO BUDWORM Egg ([7]; 100 ppm): 0; TOBACCO BUDWORM Egg ([7]; 1000 ppm): 5 (56-65% kill); LEAFHOPPER Systemic ([8]; cut stem in emulsion 3 days, mortality rating after 2 days): 0

Q: `CC(=O)SCn1c(Br)c(Br)c(C#N)c1Br` [Example 34] was tested. Which “OP-RESISTANT MITES Adult” value ([1]; 300 ppm, rating scale 0-9) did it give?
A: 0

Q: What about the “OP-RESISTANT MITES Egg” value ([1]; 300 ppm, rating scale 0-9) of the same molecule?
A: 0

Q: What about the “OP-RESISTANT MITES Nymph” value [1, 13] of the same molecule?
A: 0

Q: What about the “LEAFHOPPER Contact” value [2, 14] of the same molecule?
A: 0

Q: And the “ARMYWORM Stem Sys” value [5]?
A: 0

Q: And the APHIDS ([6]; rating scale 0-9)?
A: 8 (86-99% kill)

Q: And the “TOBACCO BUDWORM 3rd Instar” value ([12]; 100 ppm)?
A: 0

Q: What about the “TOBACCO BUDWORM 3rd Instar” value ([12]; 1000 ppm) of the same molecule?
A: 9 (100% kill)

Q: What about the “SOUTHERN CORN ROOTWORM” value ([11]; 50 (ppm as headed)) of the same molecule?
A: 0

Q: And the “TOBACCO BUDWORM Egg” value ([7]; 1000 ppm)?
A: 8 (86-99% kill)

Q: What about the “LEAFHOPPER Systemic” value [8, 15] of the same molecule?
A: 0
